Experimental data published in patent US20070149916A1, “Dry matrices as drug reservoirs in electrotransport applications” (ALZA CORPORATION, priority 2005, published 2007).

How the values were obtained:
[1] = transdermal electrotransport, FIGS. 5A and 5B
[2] = Stability of apomorphine in aqueous solution and in PEO matrices; format: physicochemical; conditions: PEO films cast using 2:1 acetonitrile:methanol; low formate or non-radiation crosslinked PEO; FIG. 4
[3] = aqueous solutions of apomorphine; cited from earlier work
[4] = Stability of hydrocortisone hemisuccinate in PVOH hydrogels and PEO matrices (HPLC); format: physicochemical
Method: The stability of hydrocortisone hemisuccinate (HCHS), a hydrolytically unstable compound that forms hydrocortisone and succinic acid via hydrolysis, in PVOH hydrogels and PEO matrices was investigated.
In a separate set of experiments (FIGS. 3A and 3B), the stability of HCHS in PVOH hydrogels and PEO matrices was examined at 23° C. and 40° C. over a period of three days.

Compound	in vitro flux in PEO films compared with PVOH hydrogels [1]	time over which formulations containing PEO were stable [2]	time to rapid oxidation in aqueous solutions [3]	stability of HCHS in PEO matrices vs PVOH hydrogels ([4]; 40° C., over a period of three days, FIGS. 3A and 3B)	stability of HCHS in PEO matrix compared with PVOH hydrogel (HPLC chromatogram) ([4]; PEO film made using acetonitrile as the solvent vs PVOH hydrogel, FIG. 2)
CN1CCc2cccc3c2[C@H]1Cc1ccc(O)c(O)c1-3 [apomorphine]	comparable	up to 4 weeks	less than 30 minutes	–	–
hydrocortisone hemisuccinate [HCHS]	–	–	–	Improved stability	more stable in the PEO matrix than in the PVOH hydrogel
